Laboratory results taken from ChEMBL document CHEMBL3885881, “DrugMatrix”.

Species on record: Rattus norvegicus
Assay: DrugMatrix - Regimen: Daily Repeat
Format: toxicity, organism-based, Sprague-Dawley
Design: regimen Daily Repeat, gender Male, age 6-8 weeks
Settings: in vivo, sc, route subcutaneous, […]; for ABSOLUTE BASOPHIL / ABSOLUTE EOSINOPHIL / ABSOLUTE LYMPHOCYTE / ABSOLUTE MONOCYTE / ABSOLUTE SEGMENTED NEUTROPHIL / BASOPHIL / EOSINOPHIL / ERYTHROCYTE COUNT / HEMATOCRIT / HEMOGLOBIN / LEUKOCYTE COUNT / LYMPHOCYTE / MEAN CORPUSCULAR HEMOGLOBIN / MEAN CORPUSCULAR HEMOGLOBIN CONCENTRATION / MEAN CORPUSCULAR VOLUME / MONOCYTE / NEUTROPHIL / NUCLEATED RED BLOOD CELLS / PLATELET COUNT: tissue Blood; for ALANINE AMINOTRANSFERASE / ALBUMIN / ALKALINE PHOSPHATASE / ASPARTATE AMINOTRANSFERASE / BLOOD UREA NITROGEN / CARBON DIOXIDE / CHLORIDE / CHOLESTEROL / CREATINE PHOSPHOKINASE / CREATININE / GLUCOSE / LACTATE DEHYDROGENASE / LIPASE / PHOSPHORUS / POTASSIUM / SODIUM / TOTAL BILIRUBIN / TOTAL PROTEIN / URIC ACID: tissue Plasma
[1] = 15 mg/kg, 72 h, dose level Low, time 3 day
[2] = 15 mg/kg, 120 h, dose level Low, time 5 day
[3] = 750 mg/kg, 72 h, dose level High, time 3 day
[4] = 750 mg/kg, 120 h, dose level High, time 5 day

CC=CC(=O)N(CC)c1ccccc1C
ABSOLUTE BASOPHIL [1]: 0 CELLS/uL | ABSOLUTE EOSINOPHIL [1]: 112 CELLS/uL | ABSOLUTE LYMPHOCYTE [1]: 10089.67 CELLS/uL | ABSOLUTE MONOCYTE [1]: 82.33 CELLS/uL | ABSOLUTE SEGMENTED NEUTROPHIL [1]: 1549.33 CELLS/uL | BASOPHIL [1]: 0% | EOSINOPHIL [1]: 1% | ERYTHROCYTE COUNT [1]: 5.39 x10E6/uL | HEMATOCRIT [1]: 34.37% | HEMOGLOBIN [1]: 13.8 G/DL | LEUKOCYTE COUNT [1]: 11.83 x10E3/uL | LYMPHOCYTE [1]: 86.33% | MEAN CORPUSCULAR HEMOGLOBIN [1]: 25.63 pg | MEAN CORPUSCULAR HEMOGLOBIN CONCENTRATION [1]: 40.2 G/DL | MEAN CORPUSCULAR VOLUME [1]: 63.7 fL | MONOCYTE [1]: 0.67% | NEUTROPHIL [1]: 12% | NUCLEATED RED BLOOD CELLS [1]: 0.33 /100WBC | PLATELET COUNT [1]: 1164.67 x10E3/uL | ALANINE AMINOTRANSFERASE [1]: 60.33 u/L | ALBUMIN [1]: 4.3 G/DL | ALKALINE PHOSPHATASE [1]: 309.33 u/L | ASPARTATE AMINOTRANSFERASE [1]: 90 u/L | BLOOD UREA NITROGEN [1]: 14.33 mg/dL | CARBON DIOXIDE [1]: 25.33 mmol/L | CHLORIDE [1]: 102 MEQ/L | CHOLESTEROL [1]: 88 mg/dL | CREATINE PHOSPHOKINASE [1]: 214.67 u/L | CREATININE [1]: 0.15 mg/dL | GLUCOSE [1]: 154.33 mg/dL | LACTATE DEHYDROGENASE [1]: 252.33 u/L | LIPASE [1]: 9 u/L | PHOSPHORUS [1]: 13.47 mg/dL | POTASSIUM [1]: 6.79 MEQ/L | SODIUM [1]: 146.9 MEQ/L | TOTAL BILIRUBIN [1]: 0.2 mg/dL | TOTAL PROTEIN [1]: 6 G/DL | URIC ACID [1]: 1.6 mg/dL | ABSOLUTE BASOPHIL [2]: 0 CELLS/uL | ABSOLUTE EOSINOPHIL [2]: 0 CELLS/uL | ABSOLUTE LYMPHOCYTE [2]: 9506.33 CELLS/uL | ABSOLUTE MONOCYTE [2]: 133 CELLS/uL | ABSOLUTE SEGMENTED NEUTROPHIL [2]: 1294 CELLS/uL | BASOPHIL [2]: 0% | EOSINOPHIL [2]: 0% | ERYTHROCYTE COUNT [2]: 5.45 x10E6/uL | HEMATOCRIT [2]: 35.03% | HEMOGLOBIN [2]: 13.53 G/DL | LEUKOCYTE COUNT [2]: 10.93 x10E3/uL | LYMPHOCYTE [2]: 87% | MEAN CORPUSCULAR HEMOGLOBIN [2]: 24.9 pg | MEAN CORPUSCULAR HEMOGLOBIN CONCENTRATION [2]: 38.67 G/DL | MEAN CORPUSCULAR VOLUME [2]: 64.33 fL | MONOCYTE [2]: 1.33% | NEUTROPHIL [2]: 11.67% | NUCLEATED RED BLOOD CELLS [2]: 2 /100WBC | PLATELET COUNT [2]: 1237.33 x10E3/uL | ALANINE AMINOTRANSFERASE [2]: 56 u/L | ALBUMIN [2]: 4.23 G/DL | ALKALINE PHOSPHATASE [2]: 398.67 u/L | ASPARTATE AMINOTRANSFERASE [2]: 78 u/L | BLOOD UREA NITROGEN [2]: 15 mg/dL | CARBON DIOXIDE [2]: 27 mmol/L | CHLORIDE [2]: 102.33 MEQ/L | CHOLESTEROL [2]: 73.67 mg/dL | CREATINE PHOSPHOKINASE [2]: 195.33 u/L | CREATININE [2]: 0.19 mg/dL | GLUCOSE [2]: 148.33 mg/dL | LACTATE DEHYDROGENASE [2]: 106 u/L | LIPASE [2]: 8.33 u/L | PHOSPHORUS [2]: 12.73 mg/dL | POTASSIUM [2]: 6.57 MEQ/L | SODIUM [2]: 147 MEQ/L | TOTAL BILIRUBIN [2]: 0.2 mg/dL | TOTAL PROTEIN [2]: 6.1 G/DL | URIC ACID [2]: 1.2 mg/dL | ABSOLUTE BASOPHIL [3]: 0 CELLS/uL | ABSOLUTE EOSINOPHIL [3]: 39 CELLS/uL | ABSOLUTE LYMPHOCYTE [3]: 11981 CELLS/uL | ABSOLUTE MONOCYTE [3]: 301 CELLS/uL | ABSOLUTE SEGMENTED NEUTROPHIL [3]: 1579 CELLS/uL | BASOPHIL [3]: 0% | EOSINOPHIL [3]: 0.33% | ERYTHROCYTE COUNT [3]: 5.38 x10E6/uL | HEMATOCRIT [3]: 34.23% | HEMOGLOBIN [3]: 13.3 G/DL | LEUKOCYTE COUNT [3]: 13.9 x10E3/uL | LYMPHOCYTE [3]: 85.67% | MEAN CORPUSCULAR HEMOGLOBIN [3]: 24.7 pg | MEAN CORPUSCULAR HEMOGLOBIN CONCENTRATION [3]: 38.83 G/DL | MEAN CORPUSCULAR VOLUME [3]: 63.7 fL | MONOCYTE [3]: 2.33% | NEUTROPHIL [3]: 11.67% | NUCLEATED RED BLOOD CELLS [3]: 1 /100WBC | PLATELET COUNT [3]: 1269.67 x10E3/uL | ALANINE AMINOTRANSFERASE [3]: 53.33 u/L | ALBUMIN [3]: 3.63 G/DL | ALKALINE PHOSPHATASE [3]: 412 u/L | ASPARTATE AMINOTRANSFERASE [3]: 76.33 u/L | BLOOD UREA NITROGEN [3]: 14.33 mg/dL | CARBON DIOXIDE [3]: 26 mmol/L | CHLORIDE [3]: 101.33 MEQ/L | CHOLESTEROL [3]: 93 mg/dL | CREATINE PHOSPHOKINASE [3]: 193.67 u/L | CREATININE [3]: 0.18 mg/dL | GLUCOSE [3]: 142.67 mg/dL | LACTATE DEHYDROGENASE [3]: 154 u/L | LIPASE [3]: 10.67 u/L | PHOSPHORUS [3]: 12.17 mg/dL | POTASSIUM [3]: 6.36 MEQ/L | SODIUM [3]: 144.1 MEQ/L | TOTAL BILIRUBIN [3]: 0.17 mg/dL | TOTAL PROTEIN [3]: 5.57 G/DL | URIC ACID [3]: 1.23 mg/dL | ABSOLUTE BASOPHIL [4]: 0 CELLS/uL | ABSOLUTE EOSINOPHIL [4]: 100.67 CELLS/uL | ABSOLUTE LYMPHOCYTE [4]: 12538 CELLS/uL | ABSOLUTE MONOCYTE [4]: 97.33 CELLS/uL | ABSOLUTE SEGMENTED NEUTROPHIL [4]: 1764 CELLS/uL | BASOPHIL [4]: 0% | EOSINOPHIL [4]: 0.67% | ERYTHROCYTE COUNT [4]: 4.84 x10E6/uL | HEMATOCRIT [4]: 29.03% | HEMOGLOBIN [4]: 11.63 G/DL | LEUKOCYTE COUNT [4]: 14.5 x10E3/uL | LYMPHOCYTE [4]: 86.67% | MEAN CORPUSCULAR HEMOGLOBIN [4]: 24.07 pg | MEAN CORPUSCULAR HEMOGLOBIN CONCENTRATION [4]: 40.13 G/DL | MEAN CORPUSCULAR VOLUME [4]: 60.03 fL | MONOCYTE [4]: 0.67% | NEUTROPHIL [4]: 12% | NUCLEATED RED BLOOD CELLS [4]: 0 /100WBC | PLATELET COUNT [4]: 1313.67 x10E3/uL | ALANINE AMINOTRANSFERASE [4]: 73.67 u/L | ALBUMIN [4]: 3.63 G/DL | ALKALINE PHOSPHATASE [4]: 318 u/L | ASPARTATE AMINOTRANSFERASE [4]: 113.67 u/L | BLOOD UREA NITROGEN [4]: 18 mg/dL | CARBON DIOXIDE [4]: 29.33 mmol/L | CHLORIDE [4]: 98.67 MEQ/L | CHOLESTEROL [4]: 97.33 mg/dL | CREATINE PHOSPHOKINASE [4]: 403.33 u/L | CREATININE [4]: 0.19 mg/dL | GLUCOSE [4]: 144 mg/dL | LACTATE DEHYDROGENASE [4]: 612.33 u/L | LIPASE [4]: 10.67 u/L | PHOSPHORUS [4]: 13.33 mg/dL | POTASSIUM [4]: 5 MEQ/L | SODIUM [4]: 136.53 MEQ/L | TOTAL BILIRUBIN [4]: 0.1 mg/dL | TOTAL PROTEIN [4]: 5.57 G/DL | URIC ACID [4]: 1.7 mg/dL
